≈ marks a conversion by molar mass, not a printed value. Where “and” joins values, the source holds several entries; their conditions need not be identical. Identical values can stand only once.
Assays:
[1] = test system: Klebsiella pneumoniae DSM30104; format: cell-based; details: CAMHII, 18 h, at least 85 % growth inhibition
Procedure: (§1) For details, see the supplemental material.
(§2) 146 Mueller Hinton 2 broth (CAMHII). Darobactins were screened in 12 concentrations
(§3) The same concentrations were tested for
(§4) 148 rifampicin, tetracycline and gentamycin as positive controls. For tetracycline resistant
(§5) 151 Bacteria suspension without supplemented standard antibiotics or Darobactin
(§6) 152 was used as negative control.
(§7) 154 spectrophotometer at 600 nm. […]
(§8) 172 performed at least in triplicate.

E. coli K0416 = format: cell-based, Escherichia coli; details: CAMHII, 18 h, at least 85 % growth inhibition
Procedure: as §1, §2, §3, §4, §5, §6, §7
(§9) 171 control. After 24 h incubation, the MIC was determined. All MIC assays were
as §8

E. coli MMGI1 = format: cell-based, Escherichia coli; details: CAMHII, 18 h, at least 85 % growth inhibition
Procedure: as §1, §2, §3, §4, §5, §6, §7, §9, §8

E. coli NRZ14408 = format: cell-based, Escherichia coli; details: CAMHII, 18 h, at least 85 % growth inhibition
Procedure: as §1, §2, §3, §4, §5, §6, §7, §9, §8

E. coli Survcare052 = format: cell-based, Escherichia coli; details: CAMHII, 18 h, at least 85 % growth inhibition
Procedure: as §1, §2, §3, §4, §5, §6, §7, §9, §8

[2] = test system: Acinetobacter baumannii ATCC 19606; format: cell-based; details: CAMHII, 18 h, at least 85 % growth inhibition
Procedure: as §1, §2, §3, §4, §5, §6, §7, §9, §8

[3] = test system: Escherichia coli ATCC 35218; format: cell-based; details: CAMHII, 18 h, at least 85 % growth inhibition
Procedure: as §1, §2, §3, §4, §5, §6, §7, §9, §8

[4] = test system: Salmonella enterica ATCC 13076; format: cell-based; details: CAMHII, 18 h, at least 85 % growth inhibition
Procedure: as §1, §2, §3, §4, §5, §6, §7, §9, §8

[5] = test system: panel of clinically relevant Gram-negative pathogens; assay: MIC comparison with DAR A over the panel of test strains; format: cell-based; details: whole panel of test strains (Table 2)
Procedure: Therefore, additional clinical isolates of A. baumannii were tested.
as §1, §2, §3, §4, §5, §6
154 spectrophotometer at 600 nm. The MIC was defined as the minimum concentration
157 dilution as well, but without shaking. In aerobic conditions, overnight cultures of K.
Exponential cultures (OD 600 of
163 of test compound solutions diluted serially two-fold. After overnight incubation at 37 °C,
The MIC against Salmonella
167 conditions. Overnight cultures grown in brain–heart infusion (BHI) broth,
as §9, §8

various E. coli strains = assay: MIC comparison with DAR A against E. coli strains; format: cell-based, Escherichia coli
Text: New antibiotics, such as darobactin, with potency against these pathogens are desperately needed. […] This can be explained by the fact that this is the only derivative investigated not ending with the amino acid phenylalanine, which represents the most frequent amino acid of known and putative β signals from bacterial OM proteins ([7]). Therefore, DAR F would not block the β signal binding site and, thus, would not inhibit the function of BamA. […] Since Ser2 should eliminate the side chain interactions existing between Asn2 and Lys808 and Asn427 of the BamA β1 strand, it is likely that this greatly reduces DAR E’s affinity for the target and, thus, reduces its potency. In contrast to DAR A, DAR D carries an arginine in position 5 instead of lysine. If DAR A is bound to BamA, the Lys5 side chain points away from BamA, thereby enabling interaction with the negatively charged phosphate groups of phosphatidylglycerol and cardiolipin lipids ([7]). Supposedly, arginine could act similarly in the place of lysine, as arginine attracts more phosphate than lysine in membranes and can form more hydrogen bonds with phosphate clusters than lysine ([16]). Arginine is also capable of cardiolipin binding, a further important aspect of DAR and BamA binding ([17]).
as §1
146 Mueller Hinton 2 broth (CAMHII). Darobactins were screened in 12 concentrations […]

| Compound | MIC [1] [µg/mL] | MIC (E. coli K0416) [µg/mL] | MIC (E. coli MMGI1) [µg/mL] | MIC (E. coli NRZ14408) [µg/mL] | MIC (E. coli Survcare052) [µg/mL] | MIC [2] [µg/mL] | MIC [3] [µg/mL] | MIC [4] [µg/mL] | fold-higher MIC values than DAR A [5] | fold decrease in potency compared to DAR A (various E. coli strains) |
| --- | --- | --- | --- | --- | --- | --- | --- | --- | --- | --- |
| N=C(N)NCCC1c2ccc3c(c[nH]c3c2)C2Oc3cccc4c(c[nH]c34)C[C@H](N)C(=O)N[C@@H](CC(N)=O)C(=O)N[C@@H]2C(=O)N[C@@H](CO)C(=O)N[C@@H]1C(=O)N[C@@H](CO)C(=O)N[C@@H](Cc1ccccc1)C(=O)O (stereo partly shown) [DAR D, darobactin D] | 64 (≈ 64.4 µM) | 32 (≈ 32.2 µM) | 64 (≈ 64.4 µM) | 64 (≈ 64.4 µM) | >64 | >64 | 64 (≈ 64.4 µM) | 64 (≈ 64.4 µM) | 8- to 16 fold and 16 fold | – |
| NCCCC1c2ccc3c(c[nH]c3c2)C2Oc3cccc4c(c[nH]c34)C[C@H](N)C(=O)N[C@@H](CO)C(=O)N[C@@H]2C(=O)N[C@@H](CO)C(=O)N[C@@H]1C(=O)N[C@@H](CO)C(=O)N[C@@H](Cc1ccccc1)C(=O)O (stereo partly shown) [DAR E, darobactin E] | 32 (≈ 34.1 µM) | 32 (≈ 34.1 µM) | 32 (≈ 34.1 µM) | 32 (≈ 34.1 µM) | 64 (≈ 68.2 µM) | >64 | 32 (≈ 34.1 µM) | 32 (≈ 34.1 µM) | 8- to 16 fold | 8- to 16 fold |
